Molecular target: T1, TRPC5 channel (Homo sapiens, UniProt Q9UL62)
T1 construct: expressed in transfected cells; host or cells: HEK293/TREx (Invitrogen), tetracycline-induced
T1 sequence (Q9UL62 1-973): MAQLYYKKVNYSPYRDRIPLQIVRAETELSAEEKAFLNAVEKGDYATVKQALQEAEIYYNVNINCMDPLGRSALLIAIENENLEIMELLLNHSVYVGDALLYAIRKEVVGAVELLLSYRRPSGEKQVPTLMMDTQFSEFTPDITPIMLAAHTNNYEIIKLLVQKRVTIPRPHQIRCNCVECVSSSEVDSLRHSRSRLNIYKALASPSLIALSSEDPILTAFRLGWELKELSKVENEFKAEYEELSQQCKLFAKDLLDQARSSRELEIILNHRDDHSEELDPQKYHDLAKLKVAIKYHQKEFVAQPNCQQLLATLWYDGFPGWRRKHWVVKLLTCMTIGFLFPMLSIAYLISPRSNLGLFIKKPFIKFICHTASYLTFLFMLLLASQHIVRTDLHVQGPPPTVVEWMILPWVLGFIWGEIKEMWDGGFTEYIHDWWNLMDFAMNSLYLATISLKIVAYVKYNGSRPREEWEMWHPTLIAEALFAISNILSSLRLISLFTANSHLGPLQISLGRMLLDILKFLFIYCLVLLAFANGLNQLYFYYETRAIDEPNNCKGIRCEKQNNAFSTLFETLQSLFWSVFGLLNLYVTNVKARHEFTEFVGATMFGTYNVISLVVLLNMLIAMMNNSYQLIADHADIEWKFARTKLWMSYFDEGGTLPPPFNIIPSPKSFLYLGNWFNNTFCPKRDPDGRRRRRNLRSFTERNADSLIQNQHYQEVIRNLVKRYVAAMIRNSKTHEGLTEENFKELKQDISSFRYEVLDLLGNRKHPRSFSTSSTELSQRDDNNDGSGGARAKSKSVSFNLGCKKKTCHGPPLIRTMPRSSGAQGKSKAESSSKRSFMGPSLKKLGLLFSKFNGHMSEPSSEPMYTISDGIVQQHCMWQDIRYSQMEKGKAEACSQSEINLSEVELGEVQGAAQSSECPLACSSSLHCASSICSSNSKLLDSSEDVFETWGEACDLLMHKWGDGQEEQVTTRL
Test: High throughput screening assay: Fluo4 cell-based fluorescence assay of intracellular Ca2+ rise
Settings: HEK293/TREx cells inducibly expressing TRPC5, 0.027-20 μM in triplicate, NF = no IC50 curve could be fit
Excerpt: The assay depended on detection of the rise in intracellular Ca2+ concentration ([Ca2+]i) following channel activation in cells inducibly expressing the TRPC5 channel. Ca2+ rise was quantified with the use of fluorescent Ca2+ indicators that were loaded into cells and thereafter indicated the [Ca2+]i Ca2+ influx followed activation of the TRPC5 channel. Compounds inhibiting the [Ca2+]i rise were considered hits for further investigation.
The commercially available HEK293/TREx line (Invitrogen) was stably transfected with a TRPC5 construct and screened by conventional calcium imaging to find clones with TRPC5 expression following stimulation with 1 μg/ml tetracycline. These cells were maintained in the growth medium recommended by the manufacturer supplemented with 100 μg/ml hygromycin to promote retention of the TRPC5 construct. After growing to near confluency, cells were plated at a density of ˜35,000 cells/well in 384 well CellBind plates (Corning) in the presence of 1 μg/ml tetracycline, and allowed to grow for 20-30 hrs. A nearly confluent monolayer resulted. Cells were then loaded with Ca2+ dye: Fura-2/AM or Fluo4/AM was added to the wells to a final concentration of 4 μM or 0.5 μM, respectively, and incubated for 80 min or 60 min, respectively, at room temperature. Supernatant was then removed from the cells by inverting plates with a sharp flick, and 25 μl Hank's Balanced Salt Solution (HBSS; 0.185 g/l D-glucose, 0.9767 g/l MgS04 (anhydrous), 0.4 g/l KCl, 0.06 g/l KH2PO4 (anhydrous), 0.35 g/l NaHCO3, 8.0 g/l NaCl, and 0.04788 g/l Na2HPO4 (anhydrous); pH 7.4) was then added to each well. Following ˜0.5 hour for recovery from loading, cells were assayed using the Hamamatsu FDSS 6000 system, which permitted illumination alternately at 340 nm and 380 nm for Fura-2 experiments, or at 485 nm for Fluo4 experiments. Frames were acquired at a rate of 0.2 Hz. During the assay, the plates were continuously vortexed, with pipette mixing of wells following addition of each reagent. For the screening assay, 26 μl of a diluted compound stock (at 50 μM) was added to each well for 2 minutes following the collection of a short (4 frame) baseline. 13 μl 62 mM high-Ca2+Ringer solution (4.17 ml of normal ringer (with 2 mM Ca2+) plus 5.83 ml of isotonic calcium ringer (105 mM Ca2+; in this ringer all sodium has been replaced with calcium)) was then added to each well, achieving a final concentration of 14 mM Ca2+ and 10 μM test compound. Data was collected for ˜3 minutes following addition of high Ca2+Ringer, where the fluorescent intensity (for Fluo4) and the F340/F380 ratio (for Fura-2) were proportional to the [Ca2+]i Negative controls consisted of HEK293/TREx TRPC5 cells exposed to high Ca2+ solution, but no compound. Positive control conditions consisted of addition of 2-APB, a promiscuous blocker of TRPC5 and other channels, to columns 23 and 24 of the plates, to a final concentration of 200 μM. These controls defined a screening window, and “hits” were defined as those compounds inhibiting the fluorescence response by at least 40%. IC50 values were determined for compounds defined as “hits.” The Fluo4 cell-based fluorescence assay was used to determine the intracellular Ca2+ concentration in the presence of varying drug concentration. Final concentrations of compounds tested were 20 μM, 6.667 μM, 2.222 μM, 0.741 μM, 0.247 μM, 0.082 μM, and 0.027 μM. Compounds were tested in triplicate at all concentrations. Standard software was used to fit IC50 curves. A value of NF was assigned when no IC50 curves could not be fit.
Additionally or alternatively, efficacy can be represented as % inhibition in the presence (of a given concentration of compound) versus the absence of compound or in comparison to a control compound. For example, efficacy can be represented as % inhibition of ion flux in the presence versus the absence of compound.

**Q.** How did the IC50 turn out when `Cn1c(=O)n(CCCO)c(=O)c2c(Cc3ccc(Cl)cc3)c(Oc3cccnc3)cnc21` [Compound 14, 5-(4-chlorobenzyl)-3-(3-hydroxypropyl)-1-methyl-6-(pyridin-3-yloxy)pyrido[2,3-d]pyrimidine-2,4(1H,3H)-dione] was run?
**A.** The IC50 was 3250 nM.

**Q.** With `Cn1c(=O)n(CCCO)c(=O)c2c(Cc3ccc(Cl)cc3)c(Oc3cncc(F)c3)cnc21` [Compound 15, 5-(4-chlorobenzyl)-6-((5-fluoropyridin-3-yl)oxy)-3-(3-hydroxypropyl)-1-methylpyrido[2,3-d]pyrimidine-2,4(1H,3H)-dione] as the compound, how does the IC50 read?
**A.** Its IC50 is 7530 nM.

**Q.** Which IC50 does the source give for `Cn1c(=O)n(CCCO)c(=O)c2c(Cc3ccc(Cl)cc3)c(Oc3cncc(Cl)c3)cnc21` [Compound 16, 5-(4-chlorobenzyl)-6-((5-chloropyridin-3-yl)oxy)-3-(3-hydroxypropyl)-1-methylpyrido[2,3-d]pyrimidine-2,4(1H,3H)-dione] here?
**A.** Its IC50 is 3740 nM.

**Q.** Which IC50 does the source give for `CC(C)c1ccccc1-c1cnc2c(c1C(O)c1ccc(Cl)cc1)c(=O)n(CCCO)c(=O)n2C` (stereo not shown) [Compound 20, 5-((4-chlorophenyl)(hydroxy)methyl)-3-(3-hydroxypropyl)-6-(2-isopropylphenyl)-1-methylpyrido[2,3-d]pyrimidine-2,4(1H,3H)-dione] here?
**A.** Its IC50 is 977 nM.

**Q.** How did the IC50 turn out when `Cn1c(=O)n(CCCO)c(=O)c2c(Cc3ccc(C(F)(F)F)cc3)c(Oc3cccc(C(F)(F)F)c3)cnc21` [Compound 22, 3-(3-hydroxypropyl)-1-methyl-5-(4-(trifluoromethyl)benzyl)-6-(3-(trifluoromethyl)phenoxy)pyrido[2,3-d]pyrimidine-2,4(1H,3H)-dione] was run?
**A.** Its IC50 is 180 nM.

**Q.** `Cn1c(=O)n(CCCO)c(=O)c2c(Cc3ccc(C(F)(F)F)nc3)c(Oc3cccc(C(F)(F)F)c3)cnc21` [Compound 24, 3-(3-hydroxypropyl)-1-methyl-6-(3-(trifluoromethyl)phenoxy)-5-((6-(trifluoromethyl)pyridin-3-yl)methyl)pyrido[2,3-d]pyrimidine-2,4(1H,3H)-dione] was tested. Which IC50 did it give?
**A.** The IC50 was 1340 nM.

**Q.** With `Cn1c(=O)n(CCCO)c(=O)c2c(Cc3ccc(Cl)cc3)c(-c3cccc(F)c3)cnc21` [Compound 25, 5-(4-chlorobenzyl)-6-(3-fluorophenyl)-3-(3-hydroxypropyl)-1-methylpyrido[2,3-d]pyrimidine-2,4(1H,3H)-dione] as the compound, how does the IC50 read?
**A.** The IC50 was 739 nM.

**Q.** Which IC50 does the source give for `Cn1c(=O)n(CCCO)c(=O)c2c(Cc3ccc(Cl)cc3)c(Oc3cccc(Cl)c3)cnc21` [Compound 26, 5-(4-chlorobenzyl)-6-(3-chlorophenoxy)-3-(3-hydroxypropyl)-1-methylpyrido[2,3-d]pyrimidine-2,4(1H,3H)-dione] here?
**A.** Its IC50 is 1290 nM.

**Q.** `CC(C)c1cccc(Oc2cnc3c(c2Cc2ccccc2)c(=O)n(CCCO)c(=O)n3C)c1` [Compound 28, 5-benzyl-3-(3-hydroxypropyl)-6-(3-isopropylphenoxy)-1-methylpyrido[2,3-d]pyrimidine-2,4(1H,3H)-dione] was tested. Which IC50 did it give?
**A.** The IC50 was 28.5 nM.

**Q.** `Cn1c(=O)n(CCCO)c(=O)c2c(Cc3ccc(C(F)(F)F)nc3)c(Oc3cccc(OC(F)(F)F)c3)cnc21` [Compound 32, 3-(3-hydroxypropyl)-1-methyl-6-(3-(trifluoromethoxy)phenoxy)-5-((6-(trifluoromethyl)pyridin-3-yl)methyl)pyrido[2,3-d]pyrimidine-2,4(1H,3H)-dione] was tested. Which IC50 did it give?
**A.** The IC50 was 350 nM.

**Q.** For `CC(C)CCc1c(OC(C)C)cnc2c1c(=O)n(CCCO)c(=O)n2C` [Compound 37, 3-(3-hydroxypropyl)-5-isopentyl-6-isopropoxy-1-methylpyrido[2,3-d]pyrimidine-2,4(1H,3H)-dione], which IC50 is on record?
**A.** The IC50 was 1160 nM.

**Q.** `CC(C)c1ccccc1-c1cnc2c(c1Cc1ccc(Cl)cc1)c(=O)n(CCCO)c(=O)n2C` [Compound 38, 5-(4-chlorobenzyl)-3-(3-hydroxypropyl)-6-(2-isopropylphenyl)-1-methylpyrido[2,3-d]pyrimidine-2,4(1H,3H)-dione] was tested. Which IC50 did it give?
**A.** Its IC50 is 215 nM.

**Q.** `CC(C)c1ccccc1Oc1cnc2c(c1Cc1ccc(F)cc1)c(=O)n(CCCO)c(=O)n2C` [Compound 41, 5-(4-fluorobenzyl)-3-(3-hydroxypropyl)-6-(2-isopropylphenoxy)-1-methylpyrido[2,3-d]pyrimidine-2,4(1H,3H)-dione] was tested. Which IC50 did it give?
**A.** Its IC50 is 33.8 nM.

Source: patent US9440972B2, “Pyrido[2,3-d]pyrimidine-2,4(1 H,3H)-dione derivatives” (Hydra Biosciences, Inc., priority 2014, dated 2016)
